Legend:
[1] = target: T1, Recombinant human Cat K (Homo sapiens, UniProt P43235); experiment: In vitro enzymatic assay of Cat K inhibition (Z-Phe-Arg-AMC fluorescence); assay type: biochemical; settings: pH 6.0, substrate Z-Phe-Arg-AMC, read-out: Cat K IC50 (µM) ± SD
T1 sequence (P43235 115-329): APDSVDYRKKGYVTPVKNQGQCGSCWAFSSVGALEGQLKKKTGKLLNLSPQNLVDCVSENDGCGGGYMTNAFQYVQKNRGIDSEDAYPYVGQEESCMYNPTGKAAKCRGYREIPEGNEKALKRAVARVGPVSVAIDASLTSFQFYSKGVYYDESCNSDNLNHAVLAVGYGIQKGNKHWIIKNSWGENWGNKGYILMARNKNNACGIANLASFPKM
Procedure: Compounds were tested at eight concentrations (100–0.001 µM). Recombinant human Cat K (5.5 ng/mL) in reaction buffer (50 µL) containing sodium acetate (50 mM), EDTA (2.5 mM), and DTT (1 mM) was added to a 96-well plate containing the test compounds at pH 6.0. The plate was incubated at 37 °C for 15 min, and the fluorescence (F1) was measured at 355 nm excitation and 460 nm emission using a microplate reader (Wallac 1420 Victor2, Norwalk, CA, USA). Subsequently, Z-Phe-Arg-AMC (20 µL, 10 µM) was added, and the plate was incubated at 37 °C for 1 h. Fluorescence (F2) was measured again at 355 nm excitation and 460 nm emission. The inhibition rate was calculated using the formula: inhibition (%) = [control (F2 − F1) − sample (F2–F1)]/[control (F2 − F1) − blank (F2 − F1)] × 100%. IC50 values were calculated using the SPSS 17.0 software.

[2] = system: RANKL-induced RAW264.7 cells; experiment: In vitro anti-bone resorption assay: area of bone resorption pits on bone slices (toluidine blue); assay type: cell-based; settings: compound 1 µM, 5 days, compared with MIV-711 / model group
Source text: (§1) Type I collagen, the predominant structural protein in bone, constitutes approximately 90% of the bone matrix protein [22]. During bone renewal, type I collagen is degraded, releasing short peptide fragments such as the C-terminal peptide of type I collagen (CTX-I) into the bloodstream. The concentration of CTX-I in the patient’s blood serves as a crucial biomarker for evaluating the degree of osteoporosis. In vitro, bone resorption can be assessed by measuring the concentration of CTX-I using a model in which osteoclasts are cultured on bone slices. In this experiment, the in vitro anti-bone resorption activities of the test compounds were evaluated in RANKL-induced RAW264.7 cells. This evaluation was based on the concentration of CTX-I released into the cell culture medium due to bone degradation, as well as the area of bone resorption pits formed on bone slices.
(§2) RAW264.7 cells, obtained from the cell bank of the Chinese Academy of Medical Sciences, were seeded into 96-well plates at a density of 1 × 10^5 cells per well with bovine femur slices. To induce cell differentiation, 50 ng mL^−1 of RANKL was added to the RAW264.7 cells. The cells were cultured for 5 days at 37 °C under 5% CO2 with the test compounds at a concentration of 1 µM. The culture supernatant was collected to measure the CTX-I concentration using ELISA. The bone slices were fixed with 2.5% glutaraldehyde for 7 min, then washed 3 times with 0.25 mol/L ammonium hydroxide, dehydrated using a series of ethanol solutions (40%, 75%, 80%, 95%, and anhydrous ethanol), and dried naturally. After staining with 1% toluidine blue solution at room temperature for 3–4 min, the bone slices were rinsed with distilled water and analyzed using an optical microscope. Bone resorption areas were calculated using image analysis software (iBright CL1500, Redmond, WA, USA).

[3] = system: RANKL-induced RAW264.7 cells; experiment: In vitro anti-bone resorption assay: CTX-I released into culture medium (ELISA), cells on bovine femur slices; assay type: cell-based; settings: compound 1 µM, 5 days; for CTX-I concentration compared to the model group (in words): vs untreated model group
Source text: as §1, §2

SMILES	IC50 [1] [µM]	melting point [°C]	Anti-bone resorption activity by area of bone resorption pits (in words) [2]	CTX-I concentration compared to the model group (in words) [3]	CTX-I concentration in the cell culture medium ([3]; ELISA) [nM]
COc1ccc(S(=O)(=O)N2CCC[C@@H](C(=O)NCc3cccc(C)c3)C2)cc1 [Compound H-2, (R)-1-((4-methoxyphenyl)sulfonyl)-N-(3-methylbenzyl)piperidine-3-carboxamide]	4.76 ± 0.71	189.8 to 190.1			
COc1ccc(S(=O)(=O)N2CCC[C@@H](C(=O)NCc3ccccc3C)C2)cc1 [Compound H-1, (R)-1-((4-methoxyphenyl)sulfonyl)-N-(2-methylbenzyl)piperidine-3-carboxamide]	3.52 ± 0.44	170.4 to 171.4			
COc1ccc(S(=O)(=O)N2CCC[C@@H](C(=O)NCc3ccc(Br)cc3)C2)cc1 [Compound H-12, (R)-N-(4-bromobenzyl)-1-((4-methoxyphenyl)sulfonyl)piperidine-3-carboxamide]	0.22 ± 0.05	148.1 to 149.3	comparable to that of MIV-711	reduced CTX-I concentration	
COc1ccc(CNC(=O)[C@@H]2CCCN(S(=O)(=O)c3ccc(Cl)cc3)C2)cc1 [Compound H-18, (R)-1-((4-chlorophenyl)sulfonyl)-N-(4-methoxybenzyl)piperidine-3-carboxamide]	0.78 ± 0.3	147 to 148.7			
C#C[C@@H]1CN(C(=O)[C@H](CC(C)C)NC(=O)c2ccc(-c3nc(N4CCN(C)CC4)sc3F)cc2)[C@@H]2C(=O)CO[C@H]12 [MIV-711, reference compound]	0.09 ± 0.02				21.73 ± 3.18
COc1ccc(CNC(=O)[C@@H]2CCCN(S(=O)(=O)c3cccc(Br)c3)C2)cc1 [Compound H-14, (R)-1-((3-bromophenyl)sulfonyl)-N-(4-methoxybenzyl)piperidine-3-carboxamide]	0.91 ± 0.15	203.5 to 204.2			
COc1ccc(S(=O)(=O)N2CCC[C@@H](C(=O)NCc3ccc(C)cc3)C2)cc1 [Compound H-3, (R)-1-((4-methoxyphenyl)sulfonyl)-N-(4-methylbenzyl)piperidine-3-carboxamide]	4.39 ± 0.65	182.3 to 182.7			
COc1ccc(CNC(=O)[C@@H]2CCCN(S(=O)(=O)c3cccc(C)c3)C2)cc1 [Compound H-20, (R)-N-(4-methoxybenzyl)-1-(m-tolylsulfonyl)piperidine-3-carboxamide]	3.82 ± 0.91	152.6 to 154.2			
COc1ccc(S(=O)(=O)N2CCC[C@@H](C(=O)NCc3cccc(Br)c3)C2)cc1 [Compound H-11, (R)-N-(3-bromobenzyl)-1-((4-methoxyphenyl)sulfonyl)piperidine-3-carboxamide]	0.66 ± 0.2	124.7 to 126.5		reduced CTX-I concentration	
COc1ccc(S(=O)(=O)N2CCC[C@@H](C(=O)NCc3cccc(OC)c3)C2)cc1 [Compound H-5, (R)-N-(3-methoxybenzyl)-1-((4-methoxyphenyl)sulfonyl)piperidine-3-carboxamide]	2.93 ± 0.4	130.2 to 131.2			
COc1ccc(CNC(=O)[C@@H]2CCCN(S(=O)(=O)c3ccc(OC)cc3)C2)cc1 [Compound H-6, (R)-N-(4-methoxybenzyl)-1-((4-methoxyphenyl)sulfonyl)piperidine-3-carboxamide]	3.64 ± 0.39	139.4 to 140.9			
COc1ccc(CNC(=O)[C@@H]2CCCN(S(=O)(=O)c3ccccc3C)C2)cc1 [Compound H-19, (R)-N-(4-methoxybenzyl)-1-(o-tolylsulfonyl)piperidine-3-carboxamide]	5.33 ± 0.94	108.3 to 109.4			
COc1ccc(CNC(=O)[C@@H]2CCCN(S(=O)(=O)c3ccccc3Br)C2)cc1 [Compound H-13, (R)-1-((2-bromophenyl)sulfonyl)-N-(4-methoxybenzyl)piperidine-3-carboxamide]	0.74 ± 0.12	189.5 to 190.5		reduced CTX-I concentration	
COc1ccc(CNC(=O)[C@@H]2CCCN(S(=O)(=O)c3ccc(Br)cc3)C2)cc1 [Compound H-15, (R)-1-((4-bromophenyl)sulfonyl)-N-(4-methoxybenzyl)piperidine-3-carboxamide]	0.85 ± 0.19	152.4 to 154.4			
COc1ccc(CNC(=O)[C@@H]2CCCN(S(=O)(=O)c3cccc(Cl)c3)C2)cc1 [Compound H-17, (R)-1-((3-chlorophenyl)sulfonyl)-N-(4-methoxybenzyl)piperidine-3-carboxamide]	0.47 ± 0.12	117.1 to 119.9	comparable to that of MIV-711	reduced CTX-I concentration	
COc1ccc(S(=O)(=O)N2CCC[C@@H](C(=O)NCc3ccccc3OC)C2)cc1 [Compound H-4, (R)-N-(2-methoxybenzyl)-1-((4-methoxyphenyl)sulfonyl)piperidine-3-carboxamide]	2.48 ± 0.37	143.7 to 144.2			
COc1ccc(CNC(=O)[C@@H]2CCCN(S(=O)(=O)c3ccccc3Cl)C2)cc1 [Compound H-16, (R)-1-((2-chlorophenyl)sulfonyl)-N-(4-methoxybenzyl)piperidine-3-carboxamide]	2.03 ± 0.43	162.3 to 164.5		reduced CTX-I concentration	
COc1ccc(S(=O)(=O)N2CCC[C@@H](C(=O)NCc3ccccc3Br)C2)cc1 [Compound H-10, (R)-N-(2-bromobenzyl)-1-((4-methoxyphenyl)sulfonyl)piperidine-3-carboxamide]	2.18 ± 0.39	153.7 to 154.5			
COc1ccc(S(=O)(=O)N2CCC[C@@H](C(C)=O)C2)cc1 [Compound F-12]	13.5 ± 2.16				
COc1ccc(S(=O)(=O)N2CCC[C@@H](C(=O)NCc3ccccc3Cl)C2)cc1 [Compound H-7, (R)-N-(2-chlorobenzyl)-1-((4-methoxyphenyl)sulfonyl)piperidine-3-carboxamide]	1.06 ± 0.18	192.3 to 193.6			
COc1ccc(CNC(=O)[C@@H]2CCCN(S(=O)(=O)c3ccc(C)cc3)C2)cc1 [Compound H-21, (R)-N-(4-methoxybenzyl)-1-tosylpiperidine-3-carboxamide]	3.65 ± 0.86	162.9 to 163.7			
COc1ccc(S(=O)(=O)N2CCC[C@@H](C(=O)NCc3cccc(Cl)c3)C2)cc1 [Compound H-8, (R)-N-(3-chlorobenzyl)-1-((4-methoxyphenyl)sulfonyl)piperidine-3-carboxamide]	0.45 ± 0.11	146.1 to 148.7		reduced CTX-I concentration	

Reference: publication PMC11396514, “Synthesis and Biological Evaluation of Novel Piperidine-3-Carboxamide Derivatives as Anti-Osteoporosis Agents Targeting Cathepsin K” (Molecules, 2024)
